Reference: patent US20260263403A1, “COMPOSITIONS AND METHODS FOR TREATING TRAUMATIC BRAIN INJURY” (THE CHILDREN'S HOSPITAL OF PHILADELPHIA, priority 2023, published 2026)

Key:
[1] = solubility/precipitation of BCAA drink during study preparation; format: physicochemical; conditions: 60 g/day dose divided twice daily, initial study preparation
From the text: The three BCAAs, valine, isoleucine, and leucine, were combined together in a 1:1:1 ratio for the four treatment doses. […] Given the unknown optimal dose of BCAA supplementation for concussion, doses of 15 g, 30 g, 45 g, and 60 g divided twice daily were chosen as initial treatment doses.

[2] = system: acetate levels in the brain; conditions: dietary supplement, within one hour of administration; cited from earlier work

| Structure (SMILES) | precipitation at the highest dose [1] | increase of acetate levels in the brain [2] |
| --- | --- | --- |
| CC(C)C[C@H](N)C(=O)O [leucine] | precipitating at a lower concentration than expected |  |
| CC(=O)OCC(COC(C)=O)OC(C)=O [GTA, glyceryl triacetate] |  | over 15 fold |
